Test results as given in patent US20260102492A1, “Inhibition of Natural Killer Cell Cytoxocity” (University of Cincinnati, priority 2022, published 2026).
“Also recorded” adds a separate entry of the source.

Legend:
[1] = test system: pSTAT3; assay: Western blot of HNSCC NK cell lysates, pSTAT3; type: cell-based, Human; settings: metformin or 50 ng CXCL1, 24 hrs; western blot, FIG. 3A/3B
Method: (§1) NK92, Cal27, UMSCC47 and HN5 cells were cultured with drug as described. Cells were collected in RIPA (0.05% sodium deoxycholate, […], 0.1% SDS, 1% NP-40) and protein content was analyzed by Pierce BCA kit (Thermo 23225). 50 ug of protein was diluted in 1×loading buffer (SDS, bromophenol blue, 47% glycerol, Tris 0.5M pH 6.8, 0.2 mM DTT-G) and heated to 90° C. for 3 minutes. Prepared lysate was loaded into gradient gels (Biorad 4561093) and run at 85V for 1.5 hour in Biorad casing with a Biorad powerpack in 1×running buffer (Tris, Glycine, SDS). Gels were transferred on nitrocellulose and run at 100V on bench for 1 hour in 1×transfer buffer (Tris, Glycine). Membranes were blocked in 5% BSA in TBS for 1 hr, washed, and incubated in primary diluted in 2% BSA in TBS overnight. Membranes were washed and incubated in Licor secondary (Licor 926-32211 and 925-68070) in 5% BSA in TBS for 1 hr. Membranes were washed and imaged on a Licor Odyssey Clx. Images were analyzed in Image Studio Lite V 5.2.
(§2) To determine what those pathways could be, pathways known to be affected by both metformin and CXCL1 were investigated. pSTAT3 and mTOR are known to be increased by activation of the CXCR2 receptor, and mTOR activation can inhibit pSTAT1 expression. Metformin is also hypothesized to inhibit pSTAT3 and mTOR in NK cells. Therefore, HNSCC patient-derived NK cells treated with metformin, CXCL1, or CXCR2i (navaxarin) were collected and analyzed by western blot analysis. Head and neck squamous cell carcinoma (HNSCC) natural killer (NK) cells were treated with metformin, 50 ng CXCL1, or 10 uM CXCR2i (navarixin) for 24 hrs and collected for lysates analyzed by western blot analysis (FIG. 3A).

[2] = test system: HNSCC patient-derived NK cells; assay: CXCL1 ELISA of NK cell culture supernatant; type: cell-based, Human
Method: Healthy donor and HNSCC NK cells were isolated from PBMCs and were treated for 24 hrs with vehicle or metformin. Supernatant was collected and analyzed by ELISA (analyzed by one way ANOVA. n=10).
HNSCC NK cells were isolated from PBMCs and treated with vehicle, 12 mM metformin, 50 ng CXCL1, 10 uM everolimus, or 10 uM BP-1-102 for 24 hr. The cells were washed and plated in fresh media. After 24 hrs, supernatant was collected for ELISA.

[3] = test system: HNSCC patient-derived NK cells; assay: NK cell perforin ELISA after co-culture with Cal27 cells; type: cell-based, Human
Method: For NK cell perforin assays, NK cells were treated with drug for 24 hrs, washed, and co-cultured with Cal27 cells for 4 hours. Supernatant was then collected, snap frozen in liquid nitrogen and stored at −80 until thawed for single use. For patient samples, undiluted plasma was added directly to ELISA. ELISA kit for perforin was obtained from ABCAM. ELISA was performed according to the manufacturer's protocol. Protocols included overnight coating of capture antibody diluted by lot number recommendation, 1 hr block with 400 uL 2% BSA in PBS, 2 hr sample incubation at room temperature of 100 uL sample (no dilution of sample was performed in these experiments), 2 hr […] diluted by lot number recommendation, 20 min Streptavidin incubation with 100 uL of 1:40 dilution of stock, and 15 min incubation with 100 uL included TMB ELISA reagent. 50 uL stop solution of in house 2N […] was added to stop reaction before reading at […] wavelength on plate reader. All plates included standard curve prepared per lot number recommendation with range of 35-2000 pg.
HNSCC patient-derived NK cells were treated with exogenous CXCL1 and an inhibitor of the CXCL1 receptor, CXCR2, or metformin. Patient-derived NK cells were exposed to Cal27 cells for 4 hours and supernatant was collected for perforin analysis by ELISA. Specifically, HNSCC NK cells derived from PBMCs were treated with 50 ng CXCL1, 12 mM metformin, or 10 nM CXCR2i (navarixin) and subjected to perforin against Cal27 target cells. Cells were analyzed by flow and analyzed by one way ANOVA. n=8.
Specifically, HNSCC NK cells were treated with vehicle, metformin, or 10 uM AMPK inhibitor (Dosomorphin) for 24 hrs, washed, and co-cultured with Cal27 cells for 4 hrs. Supernatant was collected for ELISA and analyzed by one way ANOVA. n=5.
HNSCC patient-derived NK cells were treated with vehicle, metformin, 10 uM mTOR inhibitor (Everolimus), or 10 uM mTOR activator (MHY1485) for 24 hrs, washed, and co-cultured with Cal27 cells for 4 hrs. Supernatant was collected for ELISA and analyzed by one way ANOVA. n=5.
As pSTAT1 can modulate perforin production, HNSCC patient-derived NK cells were treated with vehicle, […], or 10 uM of pSTAT1i inhibitor Fludarabine for 24 hrs, washed, and co-cultured with Cal27 cells for 4 hrs.
HNSCC NK cells were treated with vehicle, 12 mM metformin, 50 ng CXCL1, or 10 uM pSTAT3 inhibitor BP-1012 and co-cultured with Cal27 cells for 4 hrs. Supernatant was collected for ELISA and analyzed by one way ANOVA. n=5.

[4] = Peripheral blood cell populations and serum cytokines of HNSCC patients after metformin treatment; type: in vivo, Human
Method: An Unpaired 2-tailed T Test With Welch's correction was used for analysis between flow cytometry in controls versus HNSCC patients. A 2-tailed Student's t test was used to compare differences between HNSCC patients before and after treatment in flow cytometry and cytokine experiments. Differences in immune cell populations between three groups were compared by one-way ANOVA with specific post-hoc contrasts. NKCA data were compared using a paired t test. Statistical analysis was performed in GraphPad Prism (V10). Differences between groups were considered statistically significant when P<0.05.

[5] = test system: CXCL1; assay: Patient plasma CXCL1 ELISA, trial NCT04414540 (pembrolizumab and metformin); type: in vivo, Human
[6] = test system: pSTAT1; assay: Western blot of HNSCC NK cell lysates, pSTAT1; type: cell-based, Human; settings: metformin or 50 ng CXCL1, 24 hrs, FIG. 3A/3B
Method: as §1, with “Membranes were blocked in 5% BSA in TBS for 1 hr, washed, and incubated in primary diluted in 2% BSA in TBS overnight. Membranes were washed and incubated in Licor secondary (Licor 926-32211 and 925-68070) in 5% BSA in TBS for 1 hr. Membranes were washed and imaged on a Licor Odyssey Clx.” left out
as §2, with “Metformin is also hypothesized to inhibit pSTAT3 and mTOR in NK cells.” left out

[7] = test system: HNC NK cells; assay: RNA-seq of metformin treated HNSCC patient-derived NK cells; type: cell-based, Human; settings: 12 mM metformin 24 hrs
Method: HNC NK cells were isolated as above and were treated with vehicle or 12 mM metformin for 24 hrs. Cells were washed, suspended in CyroStor, and frozen. Samples were sent to Genewiz/Azenta for standard RNA-seq profiling. Sequence reads were aligned to the current reference […] genome (GRCh38) using the STAR aligner (43,44) and the reads aligned to each known gene were counted based on the latest GENCODE definitions of gene features.

[8] = patient serum cytokine profile, after metformin
[9] = patients, after metformin treatment

Structure (SMILES): CN(C)C(=N)N=C(N)N [metformin, Metformin]
- pSTAT3 [1]: decreases pSTAT3; also recorded: reduction of pSTAT3
- CXCL1 supernatant levels ([2]; HNSCC patient-derived NK cells treated 24 hrs, n=10, FIG. 1): inhibits CXCL1 release; also recorded: significantly reduced CXCL1 supernatant levels
- CXCL1 secretion ([2]; single agent (12 mM metformin, 10 uM everolimus or 10 uM BP-1-102) 24 hr, fresh media 24 hrs, n=5, FIG. 8): reduces CXCL1
- perforin ([3]; 12 mM Metformin in pSTAT1-inhibited (10 uM Fludarabine) NK cells, Cal27 co-culture 4 hrs, FIG. 6): rescued to baseline
- perforin production ([3]; 12 mM metformin or 50 ng CXCL1, Cal27 target cells 4 hours, n=8, FIG. 2): increased perforin
- expression of NKG2D ([4]; circulating NK and NKT cells, after metformin treatment): increasing expression of NKG2D back to levels seen in healthy controls
- IL-2 [4, 8]: increasing
- TNF-α [4, 8]: increasing
- TEM cells [4, 9]: larger population
- circulating NK and NKT cell populations [4, 9]: partially restored
- circulating CXCL1 ([5]; post-metformin and pembrolizumab combination (week 4), n=5): decrease was not retained
- circulating CXCL1 ([5]; post-metformin only vs pre-treatment, n=5, FIG. 9): decreased
- circulating CXCL1 ([5]; post-metformin only vs pre-treatment, n=5, FIG. 9, listed as Metformin): reduced circulating CXCL1
- pSTAT1 [6]: increases pSTAT1; also recorded: increase in pSTAT1
- CXCL1 expression (RNA-seq) [7]: significantly downregulated CXCL1
